Data published in patent US11591311B2, “3-oxo-6-heteroaryl-2-phenyl-2,3-dihydropyridazine-4-carboxamides” (priority 2017, dated 2023).

Biological target: T1, AHR (Homo sapiens, UniProt P35869)
T1 construct: U87 glioblastoma cells (ATCC) endogenously expressing AHR; host or cells: U87 glioblastoma cells, stably transfected with DRE-firefly luciferase and renilla reporter constructs
T1 sequence (P35869 11-848): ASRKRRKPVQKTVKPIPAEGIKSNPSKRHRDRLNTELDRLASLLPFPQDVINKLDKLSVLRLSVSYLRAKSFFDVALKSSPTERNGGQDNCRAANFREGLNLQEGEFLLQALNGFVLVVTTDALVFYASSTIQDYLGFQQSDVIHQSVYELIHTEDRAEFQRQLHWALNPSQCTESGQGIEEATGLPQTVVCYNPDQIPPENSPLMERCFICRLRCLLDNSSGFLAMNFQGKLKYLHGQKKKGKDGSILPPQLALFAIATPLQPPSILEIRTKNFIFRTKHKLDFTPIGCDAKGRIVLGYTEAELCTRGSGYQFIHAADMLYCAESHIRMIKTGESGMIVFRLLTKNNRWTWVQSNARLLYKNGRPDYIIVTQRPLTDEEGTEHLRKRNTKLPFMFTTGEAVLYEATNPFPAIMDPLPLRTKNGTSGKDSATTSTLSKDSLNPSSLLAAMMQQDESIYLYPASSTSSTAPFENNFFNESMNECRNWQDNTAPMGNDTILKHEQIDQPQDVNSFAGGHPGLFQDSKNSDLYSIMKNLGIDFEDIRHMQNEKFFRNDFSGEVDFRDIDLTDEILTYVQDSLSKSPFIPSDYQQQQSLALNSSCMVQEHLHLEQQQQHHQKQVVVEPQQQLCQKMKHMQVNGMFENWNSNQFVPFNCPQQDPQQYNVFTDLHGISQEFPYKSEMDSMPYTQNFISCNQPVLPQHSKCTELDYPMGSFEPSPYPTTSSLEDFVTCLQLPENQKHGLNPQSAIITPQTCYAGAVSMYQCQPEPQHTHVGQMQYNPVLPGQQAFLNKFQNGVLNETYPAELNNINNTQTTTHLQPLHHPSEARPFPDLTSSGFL
Assay: In vitro assay 1: AHR-luc transactivation assay, antagonism in human cell line (U87 glioblastoma cells prestimulated with kynurenic acid)
Format: cell-based
Description: Transactivation Assay in Human Cell Line (In Vitro Assays 1 and 2)
Transactivation assays were carried out in U87 glioblastoma cells (ATCC) endogenously expressing AHR. In addition the cells were stably transfected with an AHR inducible firefly luciferase reporter gene construct that carried AHR-binding sites (DRE) in its promoter and a renilla reporter gene construct with constitutively active promoter. Kynurenic acid is an endogenous AHR activating ligand and was used to prestimulate test cells prior to testing the antagonistic properties of compounds.
In Vitro Assay 1: Antagonism in Human Cell Line
Cells in medium (tryptophan free RPMI, 1% FCS, 2 mM Glutamine) supplemented with 150 μM kynurenic acid were grown for 20 hours in absence (negative control) or presence of increasing concentrations of test compounds (typical dilutions: 72 pmol/L, 0.25 nmol/L, 0.89 nmol/L; 3.1 nmol/L, 11 nmol/L, 38 nmol/L, 130 nmol/L, 470 nmol/L, 1.6 μmol/L, 5.7 μmol/L and 20 μmol/L in duplicates). As positive inhibition control cells supplemented with 150 μM kynurenic acid were incubated in presence of 5 μM Staurosporin. Normalization was done by positive and negative controls.
Firefly luciferase and Renilla activity was determined by the DualGlo Luciferase Assay System (Promega, #2920). Renilla activity was used to assess toxic effects of compounds.

Structure (SMILES) | IC50 [nM]
C[C@@H](CO)NC(=O)c1cc(-c2ccc(C(F)(F)F)cn2)nn(-c2ccccc2)c1=O [Example 42, N-[(2S)-1-Hydroxypropan-2-yl]-3-oxo-2-phenyl-6-[5-(trifluoromethyl)pyridin-2-yl]-2,3-dihydropyridazine-4-carboxamide] | 386
CC(C)(O)CNC(=O)c1cc(-c2cnc(C(F)(F)F)nc2)nn(-c2cccc(F)c2)c1=O [Example 17, 2-(3-Fluorophenyl)-N-(2-hydroxy-2-methylpropyl)-3-oxo-6-[2-(trifluoromethyl)pyrimidin-5-yl]-2,3-dihydropyridazine-4-carboxamide] | 2030
O=C(N[C@H]1COC[C@@H]1O)c1cc(-c2ccc(C(F)F)nc2)nn(-c2cccc(F)c2)c1=O [Example 38, 6-[6-(Difluoromethyl)pyridin-3-yl]-2-(3-fluorophenyl)-N-[(3S,4R)-4-hydroxytetrahydrofuran-3-yl]-3-oxo-2,3-dihydropyridazine-4-carboxamide] | 370
CC(C)(O)CNC(=O)c1cc(-c2ccc(C(F)F)nc2)nn(-c2cccc(F)c2)c1=O [Example 34, 6-[6-(Difluoromethyl)pyridin-3-yl]-2-(3-fluorophenyl)-N-(2-hydroxy-2-methylpropyl)-3-oxo-2,3-dihydropyridazine-4-carboxamide] | 156
O=C(NCC1(O)CCCCC1)c1cc(-c2ccc(C(F)F)nc2)nn(-c2cccc(F)c2)c1=O [Example 31, 6-[6-(Difluoromethyl)pyridin-3-yl]-2-(3-fluorophenyl)-N-[(1-hydroxycyclohexyl)methyl]-3-oxo-2,3-dihydropyridazine-4-carboxamide] | 31.8
O=C(N[C@H](CO)C(F)(F)F)c1cc(-c2ccc(C(F)F)nc2)nn(-c2cccc(F)c2)c1=O [Example 28, 6-[6-(Difluoromethyl)pyridin-3-yl]-2-(3-fluorophenyl)-3-oxo-N-[(2R)-1,1,1-trifluoro-3-hydroxypropan-2-yl]-2,3-dihydropyridazine-4-carboxamide] | 6.65
C[C@H](NC(=O)c1cc(-c2cnc(C(F)(F)F)nc2)nn(-c2cccc(F)c2)c1=O)C(C)(C)O [Example 14, 2-(3-Fluorophenyl)-N-[(2S)-3-hydroxy-3-methylbutan-2-yl]-3-oxo-6-[2-(trifluoromethyl)pyrimidin-5-yl]-2,3-dihydropyridazine-4-carboxamide] | 217
O=C(N[C@H]1COC[C@H]1O)c1cc(-c2ccc(C(F)F)nc2)nn(-c2cccc(F)c2)c1=O [Example 33, 6-[6-(Difluoromethyl)pyridin-3-yl]-2-(3-fluorophenyl)-N-[(3S,4S)-4-hydroxyoxolan-3-yl]-3-oxo-2,3-dihydropyridazine-4-carboxamide] | 75.1
COc1ccc(-c2cc(C(=O)N[C@H](C)C(C)(C)O)c(=O)n(-c3cccc(F)c3)n2)cn1 [Example 20, 2-(3-Fluorophenyl)-N-[(2R)-3-hydroxy-3-methylbutan-2-yl]-6-(6-methoxypyridin-3-yl)-3-oxo-2,3-dihydropyridazine-4-carboxamide] | 509
C[C@@H](CO)NC(=O)c1cc(-c2ccc(Cl)cn2)nn(-c2cccc(F)c2)c1=O [Example 24, 6-(5-Chloropyridin-2-yl)-2-(3-fluorophenyl)-N-[(2S)-1-hydroxypropan-2-yl]-3-oxo-2,3-dihydropyridazine-4-carboxamide] | 352
O=C(N[C@H]1COCC[C@H]1O)c1cc(-c2ccc(C(F)(F)F)nc2)nn(-c2cccc(F)c2)c1=O [Example 40, 1,5-anhydro-2,4-dideoxy-2-[({2-(3-fluorophenyl)-3-oxo-6-[6-(trifluoromethyl)pyridin-3-yl]-2,3-dihydropyridazin-4-yl}carbonyl)amino]-D-erythro-pentitol] | 32.8
Cc1ccc(-c2cc(C(=O)N[C@@H](C)CO)c(=O)n(-c3cccc(F)c3)n2)nc1 [Example 12, 2-(3-Fluorophenyl)-N-[(2S)-1-hydroxypropan-2-yl]-6-(5-methylpyridin-2-yl)-3-oxo-2,3-dihydropyridazine-4-carboxamide] | 1080
O=C(NC(CO)C1CCOC1)c1cc(-c2ccc(C(F)F)nc2)nn(-c2cccc(F)c2)c1=O (stereo not drawn) [Example 36, 6-[6-(Difluoromethyl)pyridin-3-yl]-2-(3-fluorophenyl)-N-[2-hydroxy-1-(tetrahydrofuran-3-yl)ethyl]-3-oxo-2,3-dihydropyridazine-4-carboxamide] | 196
N#C[C@@H](CO)NC(=O)c1cc(-c2ccc(C(F)F)nc2)nn(-c2cccc(F)c2)c1=O [Example 32, N-[(1S)-1-Cyano-2-hydroxyethyl]-6-[6-(difluoromethyl)pyridin-3-yl]-2-(3-fluorophenyl)-3-oxo-2,3-dihydropyridazine-4-carboxamide] | 55.9
Cc1ccc(-c2cc(C(=O)N[C@@H](C)CO)c(=O)n(-c3cccc(F)c3)n2)cn1 [Example 23, 2-(3-Fluorophenyl)-N-[(2S)-1-hydroxypropan-2-yl]-6-(6-methylpyridin-3-yl)-3-oxo-2,3-dihydropyridazine-4-carboxamide] | 265
N#C[C@@H](CO)NC(=O)c1cc(-c2ccc(C(F)(F)F)nc2)nn(-c2cccc(F)c2)c1=O [Example 39, N-[(1S)-1-Cyano-2-hydroxyethyl]-2-(3-fluorophenyl)-3-oxo-6-[6-(trifluoromethyl)pyridin-3-yl]-2,3-dihydropyridazine-4-carboxamide] | 22.8
C[C@@H](CO)NC(=O)c1cc(-c2ccc(C(F)(F)F)cn2)nn(-c2ccc(F)c(F)c2)c1=O [Example 43, 2-(3,4-Difluorophenyl)-N-[(2S)-1-hydroxypropan-2-yl]-3-oxo-6-[5-(trifluoromethyl)pyridin-2-yl]-2,3-dihydropyridazine-4-carboxamide] | 902
C[C@@H](CO)NC(=O)c1cc(-c2ccc(C(F)(F)F)cn2)nn(-c2cc(F)cc(F)c2)c1=O [Example 41, 2-(3,5-Difluorophenyl)-N-[(2S)-1-hydroxypropan-2-yl]-3-oxo-6-[5-(trifluoromethyl)pyridin-2-yl]-2,3-dihydropyridazine-4-carboxamide] | 96.5
C[C@@H](CO)NC(=O)c1cc(-c2ccc(C(F)(F)F)cn2)nn(-c2cccc(F)c2)c1=O [Example 25, 2-(3-Fluorophenyl)-N-[(2S)-1-hydroxypropan-2-yl]-3-oxo-6-[5-(trifluoromethyl)pyridin-2-yl]-2,3-dihydropyridazine-4-carboxamide] | 84.8
O=C(N[C@H]1CCC[C@H]1O)c1cc(-c2ccc(C(F)F)nc2)nn(-c2cccc(F)c2)c1=O [Example 30, 6-[6-(Difluoromethyl)pyridin-3-yl]-2-(3-fluorophenyl)-N-[(1S,2R)-2-hydroxycyclopentyl]-3-oxo-2,3-dihydropyridazine-4-carboxamide] | 21.8
CC(C)(O)[C@@H](NC(=O)c1cc(-c2ccc(C(F)F)nc2)nn(-c2cccc(F)c2)c1=O)C1CC1 [Example 27, N-[(1S)-1-Cyclopropyl-2-hydroxy-2-methylpropyl]-6-[6-(difluoromethyl)pyridin-3-yl]-2-(3-fluorophenyl)-3-oxo-2,3-dihydropyridazine-4-carboxamide] | 4.08
O=C(N[C@H](CO)C1CC1)c1cc(-c2ccc(C(F)F)nc2)nn(-c2cccc(F)c2)c1=O [Example 29, N-[(1S)-1-Cyclopropyl-2-hydroxyethyl]-6-[6-(difluoromethyl)pyridin-3-yl]-2-(3-fluorophenyl)-3-oxo-2,3-dihydropyridazine-4-carboxamide] | 15.1
O=C(N[C@H]1COCC[C@H]1O)c1cc(-c2ccc(C(F)F)nc2)nn(-c2cccc(F)c2)c1=O [Example 35, 1,5-Anhydro-2,4-dideoxy-2-[({6-[6-(difluoromethyl)pyridin-3-yl]-2-(3-fluorophenyl)-3-oxo-2,3-dihydropyridazin-4-yl}carbonyl)amino]-D-erythro-pentitol] | 174
O=C(N[C@H]1COCC[C@@H]1O)c1cc(-c2ccc(C(F)F)nc2)nn(-c2cccc(F)c2)c1=O [Example 37, 1,5-Anhydro-2,4-dideoxy-2-[({6-[6-(difluoromethyl)pyridin-3-yl]-2-(3-fluorophenyl)-3-oxo-2,3-dihydropyridazin-4-yl}carbonyl)amino]-L-threo-pentitol] | 268
